From paper PMC2901826, “Intramolecular Modulation of Serine Protease Inhibitor Activity in a Marine Cyanobacterium with Antifeedant Properties” (Marine Drugs, 2010)

Key:
[1] = molecular target: T1, porcine pancreatic elastase (Sus scrofa, UniProt P00772); experiment: Elastase inhibition assay; format: biochemical; conditions: for IC50: porcine pancreatic elastase, substrate N-succinyl-Ala-Ala-Ala-p-nitroanilide, 15 min pre-incubation, triplicate, read-out: Serine protease inhibitory activity (IC50), Elastase
T1 construct: purchased Elastin Products Company EC134; host or cells: porcine pancreas
T1 sequence (P00772 27-266): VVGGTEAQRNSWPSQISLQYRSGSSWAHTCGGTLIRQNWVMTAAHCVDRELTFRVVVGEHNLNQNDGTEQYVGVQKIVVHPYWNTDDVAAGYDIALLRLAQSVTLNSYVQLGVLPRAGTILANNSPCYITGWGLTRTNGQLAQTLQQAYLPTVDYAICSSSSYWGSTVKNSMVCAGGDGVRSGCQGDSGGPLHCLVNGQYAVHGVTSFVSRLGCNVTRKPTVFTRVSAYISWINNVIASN
Description: (§1) Elastase assay was assessed using high-purity porcine pancreatic elastase (Elastin Products Company, EC134, 135 units/mg). The assay buffer used was 1M Tris-HCl (pH 8.0). Assay buffer (79 μL), elastase solution (75 μg/mL in assay buffer, 5 μL) and various concentrations of 1 and 2 (1 μL, dissolved in DMSO) were pre-incubated for 15 min at room temperature in a microtiter plate. After this time, 15 μL of substrate solution (2 mM N-succinyl-Ala-Ala-Ala-p-nitroanilide in assay buffer) was added to each well and the reaction was followed by measuring the absorbance at 405 nm every 30 s. Inhibition of chymotrypsin was determined using the α-chymotrypsin from bovine pancreas (Sigma, C4129, 55 units/mg). The assay buffer was 50 mM Tris-HCl, 100 mM NaCl and 1 mM CaCl2 (pH 7.8). Assay buffer (39 μL), enzyme solution (100 μg/mL in assay buffer, 10 μL), and various concentrations of 1 and 2 (1 μL, dissolved in DMSO) were pre incubated for 30 min at room temperature before substrate solution (1.5 mM N-succinyl-Gly-Gly-Phe-p-nitroanilide in assay buffer) was added. The reaction was followed by measuring the absorbance at 405 nm every 30 s for 30 min. For each assay, enzyme activity of each well was calculated using the initial slope of each progress curve, expressed as a percentage of the slope of uninhibited reaction. All assays were carried out in triplicate at ambient temperature (T = 29 °C). […] Dose–response curve fitting was done using Xlfit Excel, MathlQ Version 2.2.2 (IDBS Ltd.).

[2] = molecular target: T2, α-chymotrypsin from bovine pancreas (Bos taurus, UniProt P00766); conditions: cited from earlier work
T2 construct: purchased Sigma C4129; host or cells: bovine pancreas

[3] = molecular target: T2, α-chymotrypsin from bovine pancreas; experiment: Chymotrypsin inhibition assay; format: biochemical; conditions: for IC50: α-chymotrypsin from bovine pancreas, substrate N-succinyl-Gly-Gly-Phe-p-nitroanilide, 30 min pre-incubation, triplicate, read-out: Serine protease inhibitory activity (IC50), Chymotrypsin
Description: as §1

Compound | IC50 [1] [µM] | chymotrypsin inhibition, previously reported [2] | IC50 [3] [µM] | fold reduced activity against elastase ([1]; relative to largamide D (2)) [fold] | fold reduced activity against chymotrypsin ([3]; relative to largamide D (2)) [fold]
CC(C)C[C@@H]1NC(=O)[C@@H](NC(=O)[C@@H](NC(=O)[C@H](C)NC(=O)[C@H](CCCc2ccc(O)cc2)NC(=O)[C@H](O)CO)C(C)C)[C@@H](C)OC(=O)[C@H](C(C)C)NC(=O)[C@H](Cc2ccc(O)c(Br)c2)N(C)C(=O)[C@H]([C@@H](C)O)N2C(=O)[C@H](CC[C@H]2O)NC1=O [Largamide D (2), largamide D] | 0.045 ± 0.003 | moderate chymotrypsin inhibitor | 0.083 ± 0.008 |  | 
CC(C)CC1NC(=O)C(NC(=O)C(NC(=O)C(C)NC(=O)C(CCCc2ccc(O)cc2)NC(=O)C(O)CO)C(C)C)C(C)OC(=O)C(C(C)C)NC(=O)C(Cc2ccc(O)c(Br)c2)N(C)C(=O)C2C(C)OC3CCC(NC1=O)C(=O)N32 (stereo not shown) [Largamide D oxazolidine (1), largamide D oxazolidine] | 1.52 ± 0.08 |  | 0.928 ± 0.093 | 33 | 11
